Reference: US20050272720A1 (priority 2004, published 2005)

Assay: Solid-state stability of olanzapine acetate under normal conditions
Format: physicochemical
Excerpt: The olanzapine acetate in solid state is a particulate material, with no or minimal tendency of reversible absorption of water from the environment, and with good handling properties.

**Q.** With `Cc1cc2c(s1)Nc1ccccc1N=C2N1CCN(C)CC1` [olanzapine acetate] as the compound, how does the “stability under normal conditions of temperature and moisture” value read?
**A.** sufficiently stable
